Test results: publication PMC12586182 (Frontiers in Oncology, 2025)

Experiments:
Test in all cases: Kinase panel profiling at 1 µmol/L (mobility shift assay, Carna)
p70S6Kβ = biological target: T1, p70S6Kβ (Homo sapiens, UniProt Q9UBS0); type: biochemical; settings: 1 µmol/L of BTK inhibitor
T1 construct: purchased Carna Biosciences

FGR = biological target: T2, FGR (Homo sapiens, UniProt P09769); type: biochemical; settings: 1 µmol/L of BTK inhibitor
T2 construct: purchased Carna Biosciences

DYRK3 = biological target: T3, DYRK3 (Homo sapiens, UniProt O43781); type: biochemical; settings: 1 µmol/L of BTK inhibitor
T3 construct: purchased Carna Biosciences
T3 sequence (O43781 1-588): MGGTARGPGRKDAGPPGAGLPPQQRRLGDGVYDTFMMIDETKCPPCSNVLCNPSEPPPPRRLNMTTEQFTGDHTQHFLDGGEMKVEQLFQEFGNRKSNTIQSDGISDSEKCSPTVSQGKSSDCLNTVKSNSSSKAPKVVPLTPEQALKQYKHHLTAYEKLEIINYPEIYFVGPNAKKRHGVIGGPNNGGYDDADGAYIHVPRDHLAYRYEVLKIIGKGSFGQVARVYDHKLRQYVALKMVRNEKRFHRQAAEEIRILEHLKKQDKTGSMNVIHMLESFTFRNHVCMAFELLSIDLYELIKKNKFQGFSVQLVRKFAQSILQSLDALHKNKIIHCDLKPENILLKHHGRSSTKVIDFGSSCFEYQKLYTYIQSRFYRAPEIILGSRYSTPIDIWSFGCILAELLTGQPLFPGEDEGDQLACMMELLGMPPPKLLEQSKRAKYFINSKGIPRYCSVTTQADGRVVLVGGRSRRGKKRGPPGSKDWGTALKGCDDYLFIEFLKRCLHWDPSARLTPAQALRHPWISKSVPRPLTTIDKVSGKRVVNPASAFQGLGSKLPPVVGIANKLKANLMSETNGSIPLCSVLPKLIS

ALK = biological target: T4, ALK (Homo sapiens, UniProt Q9UM73); type: biochemical; settings: 1 µmol/L of BTK inhibitor
T4 construct: purchased Carna Biosciences

PDGFRβ = biological target: T5, PDGFRβ (Homo sapiens, UniProt P09619); type: biochemical; settings: 1 µmol/L of BTK inhibitor
T5 construct: purchased Carna Biosciences

EGFR = EGFR (Homo sapiens, UniProt P00533); settings: for Percentage inhibition of kinase enzyme activity: EGFR, 1 µmol/L of BTK inhibitor
LTK = biological target: T6, LTK (Homo sapiens, UniProt P29376); type: biochemical; settings: 1 µmol/L of BTK inhibitor
T6 construct: purchased Carna Biosciences

NIM1K = biological target: T7, NIM1K (Homo sapiens, UniProt Q8IY84); type: biochemical; settings: 1 µmol/L of BTK inhibitor
T7 construct: purchased Carna Biosciences

LOK = biological target: T8, LOK (Homo sapiens, UniProt O94804); type: biochemical; settings: 1 µmol/L of BTK inhibitor
T8 construct: purchased Carna Biosciences

TRKC = biological target: T9, TRKC (Homo sapiens, UniProt Q16288); type: biochemical; settings: 1 µmol/L of BTK inhibitor
T9 construct: purchased Carna Biosciences

AKT1 = biological target: T10, AKT1 (Homo sapiens, UniProt P31749); type: biochemical; settings: 1 µmol/L of BTK inhibitor
T10 construct: purchased Carna Biosciences

HIPK1 = biological target: T11, HIPK1 (Homo sapiens, UniProt Q86Z02); type: biochemical; settings: 1 µmol/L of BTK inhibitor
T11 construct: purchased Carna Biosciences

TSSK2 = biological target: T12, TSSK2 (Homo sapiens, UniProt Q96PF2); type: biochemical; settings: 1 µmol/L of BTK inhibitor
T12 construct: purchased Carna Biosciences
T12 sequence (Q96PF2 1-358): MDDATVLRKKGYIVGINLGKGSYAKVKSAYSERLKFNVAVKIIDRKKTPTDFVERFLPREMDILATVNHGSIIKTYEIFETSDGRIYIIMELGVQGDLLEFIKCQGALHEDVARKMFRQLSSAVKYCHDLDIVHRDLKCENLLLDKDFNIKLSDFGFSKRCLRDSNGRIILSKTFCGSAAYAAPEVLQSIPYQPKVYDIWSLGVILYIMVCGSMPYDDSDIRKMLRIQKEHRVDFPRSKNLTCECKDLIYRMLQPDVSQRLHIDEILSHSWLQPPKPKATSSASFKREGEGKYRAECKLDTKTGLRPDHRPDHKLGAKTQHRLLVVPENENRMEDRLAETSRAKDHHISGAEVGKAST

FRK = biological target: T13, FRK (Homo sapiens, UniProt P42685); type: biochemical; settings: 1 µmol/L of BTK inhibitor
T13 construct: purchased Carna Biosciences

PAK6 = biological target: T14, PAK6 (Homo sapiens, UniProt Q9NQU5); type: biochemical; settings: 1 µmol/L of BTK inhibitor
T14 construct: purchased Carna Biosciences

ABL = biological target: T15, ABL (Homo sapiens, UniProt P00519); type: biochemical; settings: 1 µmol/L of BTK inhibitor
T15 construct: purchased Carna Biosciences

TYRO3 = biological target: T16, TYRO3 (Homo sapiens, UniProt Q06418); type: biochemical; settings: 1 µmol/L of BTK inhibitor
T16 construct: purchased Carna Biosciences
T16 sequence (Q06418 41-890): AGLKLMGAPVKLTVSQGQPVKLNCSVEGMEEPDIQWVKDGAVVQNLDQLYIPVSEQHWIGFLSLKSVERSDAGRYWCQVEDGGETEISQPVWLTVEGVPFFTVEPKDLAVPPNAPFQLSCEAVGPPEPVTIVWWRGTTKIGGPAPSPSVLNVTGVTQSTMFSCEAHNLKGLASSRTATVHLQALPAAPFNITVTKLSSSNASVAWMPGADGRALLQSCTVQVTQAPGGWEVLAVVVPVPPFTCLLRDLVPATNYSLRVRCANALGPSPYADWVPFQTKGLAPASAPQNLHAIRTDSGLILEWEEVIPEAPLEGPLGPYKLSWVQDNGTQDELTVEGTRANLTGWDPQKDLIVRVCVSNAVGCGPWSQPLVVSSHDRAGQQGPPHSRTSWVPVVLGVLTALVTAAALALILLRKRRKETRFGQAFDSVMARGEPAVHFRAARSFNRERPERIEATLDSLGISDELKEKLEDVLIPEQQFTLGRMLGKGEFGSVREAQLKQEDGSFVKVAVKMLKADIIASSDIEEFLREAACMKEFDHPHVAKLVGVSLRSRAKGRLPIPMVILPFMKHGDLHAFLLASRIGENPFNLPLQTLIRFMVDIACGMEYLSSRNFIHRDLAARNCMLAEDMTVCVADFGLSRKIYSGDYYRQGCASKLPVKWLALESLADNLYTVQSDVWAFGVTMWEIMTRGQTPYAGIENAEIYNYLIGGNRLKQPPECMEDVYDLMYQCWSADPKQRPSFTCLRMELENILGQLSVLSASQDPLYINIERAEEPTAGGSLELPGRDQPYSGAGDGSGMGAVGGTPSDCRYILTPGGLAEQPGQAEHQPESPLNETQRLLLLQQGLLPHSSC

HGK = biological target: T17, HGK (Homo sapiens, UniProt O95819); type: biochemical; settings: 1 µmol/L of BTK inhibitor
T17 construct: purchased Carna Biosciences

TRKB = biological target: T18, TRKB (Homo sapiens, UniProt Q16620); type: biochemical; settings: 1 µmol/L of BTK inhibitor
T18 construct: purchased Carna Biosciences

T9 sequence (Q16288 32-839): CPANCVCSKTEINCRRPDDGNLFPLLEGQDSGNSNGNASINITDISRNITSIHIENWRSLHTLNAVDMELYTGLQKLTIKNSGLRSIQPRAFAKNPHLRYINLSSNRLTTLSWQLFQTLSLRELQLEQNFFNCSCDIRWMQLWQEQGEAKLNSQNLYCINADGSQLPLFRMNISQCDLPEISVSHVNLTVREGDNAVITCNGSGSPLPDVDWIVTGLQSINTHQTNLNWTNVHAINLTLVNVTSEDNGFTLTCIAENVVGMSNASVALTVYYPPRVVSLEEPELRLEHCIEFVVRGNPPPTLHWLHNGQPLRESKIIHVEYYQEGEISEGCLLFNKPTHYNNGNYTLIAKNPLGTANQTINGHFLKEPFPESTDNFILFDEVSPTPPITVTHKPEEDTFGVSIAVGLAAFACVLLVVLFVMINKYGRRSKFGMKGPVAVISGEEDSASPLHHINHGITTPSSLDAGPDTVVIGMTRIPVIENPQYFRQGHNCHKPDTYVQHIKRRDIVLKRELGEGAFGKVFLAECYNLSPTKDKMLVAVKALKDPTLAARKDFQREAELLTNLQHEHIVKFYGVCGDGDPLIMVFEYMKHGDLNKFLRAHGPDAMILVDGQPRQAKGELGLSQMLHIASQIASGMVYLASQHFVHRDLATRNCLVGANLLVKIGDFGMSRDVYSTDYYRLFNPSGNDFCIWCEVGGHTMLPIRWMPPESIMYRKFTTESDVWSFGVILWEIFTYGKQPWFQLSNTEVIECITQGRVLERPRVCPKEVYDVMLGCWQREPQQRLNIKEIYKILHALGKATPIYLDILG
T13 sequence (P42685 whole entry): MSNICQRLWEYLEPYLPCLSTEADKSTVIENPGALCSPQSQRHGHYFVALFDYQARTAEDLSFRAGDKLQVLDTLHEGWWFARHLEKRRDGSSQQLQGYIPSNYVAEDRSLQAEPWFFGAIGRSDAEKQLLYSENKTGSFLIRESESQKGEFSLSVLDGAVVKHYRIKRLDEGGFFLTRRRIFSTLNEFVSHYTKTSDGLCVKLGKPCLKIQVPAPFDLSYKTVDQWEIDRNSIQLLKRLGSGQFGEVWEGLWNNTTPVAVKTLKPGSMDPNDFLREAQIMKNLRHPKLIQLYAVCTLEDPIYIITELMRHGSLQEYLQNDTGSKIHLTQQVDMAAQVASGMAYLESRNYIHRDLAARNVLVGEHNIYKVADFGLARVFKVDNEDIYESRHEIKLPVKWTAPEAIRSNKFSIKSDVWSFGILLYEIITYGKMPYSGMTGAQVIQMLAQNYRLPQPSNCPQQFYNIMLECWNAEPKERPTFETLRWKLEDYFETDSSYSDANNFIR
T4 sequence (Q9UM73 19-1620): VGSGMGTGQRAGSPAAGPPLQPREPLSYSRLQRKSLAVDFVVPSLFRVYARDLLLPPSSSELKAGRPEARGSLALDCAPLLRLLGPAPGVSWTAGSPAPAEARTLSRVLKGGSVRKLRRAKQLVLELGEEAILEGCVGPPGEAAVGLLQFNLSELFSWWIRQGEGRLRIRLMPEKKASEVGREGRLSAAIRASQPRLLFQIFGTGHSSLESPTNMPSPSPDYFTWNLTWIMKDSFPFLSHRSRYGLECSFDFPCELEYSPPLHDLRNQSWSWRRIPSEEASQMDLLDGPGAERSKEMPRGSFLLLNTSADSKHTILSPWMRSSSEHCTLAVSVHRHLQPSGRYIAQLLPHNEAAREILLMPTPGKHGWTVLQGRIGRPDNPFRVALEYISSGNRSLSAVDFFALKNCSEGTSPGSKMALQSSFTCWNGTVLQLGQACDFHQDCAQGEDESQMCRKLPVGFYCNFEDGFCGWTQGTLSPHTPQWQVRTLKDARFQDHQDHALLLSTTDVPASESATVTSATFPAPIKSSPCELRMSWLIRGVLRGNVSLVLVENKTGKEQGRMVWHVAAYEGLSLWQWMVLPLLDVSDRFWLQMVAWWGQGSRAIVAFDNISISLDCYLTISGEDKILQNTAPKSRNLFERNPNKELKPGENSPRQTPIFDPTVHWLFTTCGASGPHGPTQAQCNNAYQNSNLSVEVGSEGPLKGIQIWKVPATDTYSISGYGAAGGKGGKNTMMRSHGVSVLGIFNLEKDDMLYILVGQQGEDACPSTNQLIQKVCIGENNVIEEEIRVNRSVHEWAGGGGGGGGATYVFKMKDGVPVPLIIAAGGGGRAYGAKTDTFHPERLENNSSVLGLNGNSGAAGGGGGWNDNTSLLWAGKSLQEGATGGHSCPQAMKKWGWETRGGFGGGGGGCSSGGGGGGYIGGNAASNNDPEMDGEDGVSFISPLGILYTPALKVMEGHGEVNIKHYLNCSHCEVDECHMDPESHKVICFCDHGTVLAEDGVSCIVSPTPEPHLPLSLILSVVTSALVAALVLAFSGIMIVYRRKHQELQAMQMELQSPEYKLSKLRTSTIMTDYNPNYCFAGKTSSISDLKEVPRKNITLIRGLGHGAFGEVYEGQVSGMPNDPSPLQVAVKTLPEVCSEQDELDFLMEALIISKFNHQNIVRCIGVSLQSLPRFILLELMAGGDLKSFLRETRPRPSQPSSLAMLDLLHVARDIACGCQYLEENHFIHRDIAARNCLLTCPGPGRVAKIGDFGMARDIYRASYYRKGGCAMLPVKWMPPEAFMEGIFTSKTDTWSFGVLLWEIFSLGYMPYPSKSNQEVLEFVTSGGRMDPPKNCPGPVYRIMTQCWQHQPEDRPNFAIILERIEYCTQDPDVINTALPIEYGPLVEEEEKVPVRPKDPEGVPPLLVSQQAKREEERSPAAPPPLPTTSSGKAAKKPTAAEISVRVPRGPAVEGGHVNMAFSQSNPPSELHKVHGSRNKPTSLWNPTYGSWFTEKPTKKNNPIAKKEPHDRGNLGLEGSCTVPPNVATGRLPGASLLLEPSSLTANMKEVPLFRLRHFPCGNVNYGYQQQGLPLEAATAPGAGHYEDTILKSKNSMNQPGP
T14 sequence (Q9NQU5 whole entry): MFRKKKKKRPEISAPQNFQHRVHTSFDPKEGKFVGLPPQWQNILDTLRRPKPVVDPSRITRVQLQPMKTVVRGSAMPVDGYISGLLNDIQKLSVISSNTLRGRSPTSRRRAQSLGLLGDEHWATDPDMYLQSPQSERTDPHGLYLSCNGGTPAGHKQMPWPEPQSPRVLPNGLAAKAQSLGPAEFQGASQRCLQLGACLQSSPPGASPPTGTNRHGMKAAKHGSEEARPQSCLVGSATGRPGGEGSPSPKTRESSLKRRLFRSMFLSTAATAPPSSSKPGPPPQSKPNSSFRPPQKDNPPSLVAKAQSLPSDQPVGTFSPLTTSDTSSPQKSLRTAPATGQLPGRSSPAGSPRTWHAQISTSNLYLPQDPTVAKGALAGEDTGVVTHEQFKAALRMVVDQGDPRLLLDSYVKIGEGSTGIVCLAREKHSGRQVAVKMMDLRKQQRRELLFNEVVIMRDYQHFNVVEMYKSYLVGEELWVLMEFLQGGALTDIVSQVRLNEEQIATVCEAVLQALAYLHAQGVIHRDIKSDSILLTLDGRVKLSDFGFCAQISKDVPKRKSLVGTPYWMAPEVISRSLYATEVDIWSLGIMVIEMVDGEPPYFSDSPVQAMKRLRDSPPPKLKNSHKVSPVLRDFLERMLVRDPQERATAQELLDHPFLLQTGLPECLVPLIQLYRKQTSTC
T10 sequence (P31749 whole entry): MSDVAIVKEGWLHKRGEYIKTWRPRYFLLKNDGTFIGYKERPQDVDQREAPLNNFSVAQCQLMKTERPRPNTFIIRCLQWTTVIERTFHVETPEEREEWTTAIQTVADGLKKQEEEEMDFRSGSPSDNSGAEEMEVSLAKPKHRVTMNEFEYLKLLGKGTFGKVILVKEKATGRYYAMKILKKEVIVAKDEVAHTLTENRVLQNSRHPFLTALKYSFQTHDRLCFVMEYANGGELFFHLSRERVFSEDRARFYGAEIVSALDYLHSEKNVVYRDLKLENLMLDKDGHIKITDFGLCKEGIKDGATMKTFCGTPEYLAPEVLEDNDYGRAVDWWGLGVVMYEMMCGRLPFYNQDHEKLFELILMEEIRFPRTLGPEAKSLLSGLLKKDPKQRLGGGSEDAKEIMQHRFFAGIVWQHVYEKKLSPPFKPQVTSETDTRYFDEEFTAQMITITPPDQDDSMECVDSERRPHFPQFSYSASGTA
T6 sequence (P29376 17-864): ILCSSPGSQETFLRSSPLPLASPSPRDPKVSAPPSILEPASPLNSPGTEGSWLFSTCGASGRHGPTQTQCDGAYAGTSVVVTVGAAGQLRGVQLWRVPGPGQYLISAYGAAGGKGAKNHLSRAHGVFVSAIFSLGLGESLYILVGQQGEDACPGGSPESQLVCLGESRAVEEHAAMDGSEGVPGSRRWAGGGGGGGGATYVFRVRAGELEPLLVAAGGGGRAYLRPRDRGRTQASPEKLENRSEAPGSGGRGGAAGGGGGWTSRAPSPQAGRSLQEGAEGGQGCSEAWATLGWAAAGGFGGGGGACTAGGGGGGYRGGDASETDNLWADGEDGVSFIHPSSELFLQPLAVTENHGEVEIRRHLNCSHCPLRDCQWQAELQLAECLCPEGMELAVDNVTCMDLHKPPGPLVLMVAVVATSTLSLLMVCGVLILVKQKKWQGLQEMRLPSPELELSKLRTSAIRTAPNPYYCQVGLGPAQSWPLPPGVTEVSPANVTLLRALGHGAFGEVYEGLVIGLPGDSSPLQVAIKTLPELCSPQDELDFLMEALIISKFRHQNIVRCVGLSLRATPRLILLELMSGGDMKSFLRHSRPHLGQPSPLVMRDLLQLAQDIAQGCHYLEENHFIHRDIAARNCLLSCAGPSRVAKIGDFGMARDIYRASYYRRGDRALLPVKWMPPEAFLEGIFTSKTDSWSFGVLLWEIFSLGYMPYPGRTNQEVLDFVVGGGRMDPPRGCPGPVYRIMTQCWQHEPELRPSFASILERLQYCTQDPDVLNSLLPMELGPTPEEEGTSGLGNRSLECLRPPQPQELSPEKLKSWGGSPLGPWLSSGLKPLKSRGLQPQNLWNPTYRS

Structure (SMILES) | Percentage inhibition of kinase enzyme activity (p70S6Kβ) | Percentage inhibition of kinase enzyme activity (FGR) | Percentage inhibition of kinase enzyme activity (DYRK3) | Percentage inhibition of kinase enzyme activity (ALK) | Percentage inhibition of kinase enzyme activity (PDGFRβ) | Percentage inhibition of kinase enzyme activity (EGFR) | Percentage inhibition of kinase enzyme activity (LTK) | Percentage inhibition of kinase enzyme activity (NIM1K) | Percentage inhibition of kinase enzyme activity (LOK) | Percentage inhibition of kinase enzyme activity (TRKC) | Percentage inhibition of kinase enzyme activity (AKT1) | Percentage inhibition of kinase enzyme activity (HIPK1) | Percentage inhibition of kinase enzyme activity (TSSK2) | Percentage inhibition of kinase enzyme activity (FRK) | Percentage inhibition of kinase enzyme activity (PAK6) | Percentage inhibition of kinase enzyme activity (ABL) | Percentage inhibition of kinase enzyme activity (TYRO3) | Percentage inhibition of kinase enzyme activity (HGK) | Percentage inhibition of kinase enzyme activity (TRKB) | inhibition at 1 µM (EGFR; read-out: Inhibition of EGFR)
CC#CC(=O)N1CCC[C@H]1c1nc(-c2ccc(C(=O)Nc3ccccn3)cc2)c2c(N)nccn12 [acalabrutinib] | -14.17% | 2.91% | 0.35% | 5.27% | 5.36% | 19.39% | 10.06% | -7.33% | 3.37% | 11.12% | -6.23% | -14.56% | -3.11% | 47.48% | -8.74% | -2.81% | 3.11% | -1.42% | 13.81% | –
C=CC(=O)N1CCC[C@@H](n2nc(-c3ccc(Oc4ccccc4)cc3)c3c(N)ncnc32)C1 [ibrutinib] | 0.87% | 99.02% | -3.93% | 5.45% | 54.81% | – | 2.76% | -2.33% | 24.15% | 23.90% | -9.41% | 4.26% | -3.91% | 99.53% | 8.60% | 7.80% | 11.95% | -0.0249% | 25.78% | –
O=C(c1ccc(Oc2ccccc2)cc1Cl)c1c[nH]c2ncnc(N[C@@H]3CC[C@@H](CO)OC3)c12 [nemtabrutinib] | 4.30% | 90.23% | -5.63% | 50.65% | 76.83% | 99.77% | – | -2.21% | 83.97% | 99.56% | -8.43% | 2.16% | -0.84% | 98.79% | 64.72% | 56.26% | 58.33% | 72.78% | 101.64% | –
COc1ccc(F)cc1C(=O)NCc1ccc(-c2nn([C@@H](C)C(F)(F)F)c(N)c2C(N)=O)cc1 [pirtobrutinib] | 10.01% | 18.17% | 7.54% | 6.67% | 5.87% | 85.26% | -0.40% | -1.08% | -1.51% | 5.23% | -12.80% | 2.97% | -11.71% | 13.63% | 4.12% | 2.26% | -3.18% | 3.60% | 4.46% | > 75%
C=CC(=O)N1CCC([C@@H]2CCNc3c(C(N)=O)c(-c4ccc(Oc5ccccc5)cc4)nn32)CC1 [zanubrutinib] | – | 2.22% | – | – | 5.37% | – | 55.84% | – | – | – | – | – | – | 31.32% | – | – | – | – | – | –
